Earlier results as cited in US20140186456A1, “Tripartite Bioactive Composition Providing Anti-Oxidant and Anti-Inflammatory Effects with Immune System and Stem Cell Production Enhancement” (priority 2011, published 2014).

System: organisms and animal species

Question: With `Oc1ccc(/C=C/c2cc(O)cc(O)c2)cc1` [resveratrol, 3,5,4′-trihydroxy-trans-stilbene] as the molecule, how does the increase of lifespan read?
Answer: 20-40%
